Experimental data as given in ChEMBL document CHEMBL5209897, “Affinity Phenotypic Cellular Literature for EUbOPEN Chemogenomics Library wave 3” (2023).

How the values were obtained:
[1] = target: T1, Mitogen-activated protein kinase 11 (Homo sapiens, UniProt Q15759)
Presenilin-1 [2] = target: T2, Presenilin-1 (Homo sapiens, UniProt P49768); experiment: Affinity Phenotypic Cellular interaction (Abeta40 inhibition assay (in SH-SY5Y (SP4CT) cells; APP as target)) EUB0000750a PSEN1; type: cell-based; parameters: mode of action Inhibitor, recommended concentration 100 nM
[3] = target: T3, Calcium/calmodulin-dependent protein kinase kinase 2 (Homo sapiens, UniProt Q96RR4); experiment: Affinity Phenotypic Cellular interaction (Western Blot (downstream phosphorylation of AMPK in C4-2 cells)) EUB0000168b CAMKK2; type: cell-based; parameters: mode of action Negative control for SGC-CAMKK2-1 (UNC-YL-36), recommended concentration 1 uM
T3 sequence (Q96RR4 whole entry): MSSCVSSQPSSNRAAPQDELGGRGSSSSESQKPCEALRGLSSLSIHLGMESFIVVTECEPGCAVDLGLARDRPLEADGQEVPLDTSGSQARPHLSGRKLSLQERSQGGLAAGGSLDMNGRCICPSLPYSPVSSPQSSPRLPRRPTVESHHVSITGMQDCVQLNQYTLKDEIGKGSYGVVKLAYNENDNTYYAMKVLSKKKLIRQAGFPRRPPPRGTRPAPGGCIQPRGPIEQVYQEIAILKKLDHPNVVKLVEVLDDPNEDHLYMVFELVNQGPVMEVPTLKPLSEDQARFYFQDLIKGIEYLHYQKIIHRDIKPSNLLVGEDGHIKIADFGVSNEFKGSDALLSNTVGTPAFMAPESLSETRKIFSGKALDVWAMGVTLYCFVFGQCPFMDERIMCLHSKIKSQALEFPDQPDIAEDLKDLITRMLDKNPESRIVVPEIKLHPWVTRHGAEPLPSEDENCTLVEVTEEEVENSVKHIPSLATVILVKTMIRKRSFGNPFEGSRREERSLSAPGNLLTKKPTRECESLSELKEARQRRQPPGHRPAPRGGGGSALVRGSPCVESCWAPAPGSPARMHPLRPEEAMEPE

[4] = target: Methionine aminopeptidase 2 (Homo sapiens, UniProt P50579); experiment: Affinity Phenotypic Cellular interaction (Western Blot (acumulation of Nmet14-3-3gamma in HUVEC cells)) EUB0000303b METAP2; type: cell-based; parameters: mode of action Inhibitor, recommended concentration 1 uM
Methionine aminopeptidase 2, sequence (P50579 whole entry): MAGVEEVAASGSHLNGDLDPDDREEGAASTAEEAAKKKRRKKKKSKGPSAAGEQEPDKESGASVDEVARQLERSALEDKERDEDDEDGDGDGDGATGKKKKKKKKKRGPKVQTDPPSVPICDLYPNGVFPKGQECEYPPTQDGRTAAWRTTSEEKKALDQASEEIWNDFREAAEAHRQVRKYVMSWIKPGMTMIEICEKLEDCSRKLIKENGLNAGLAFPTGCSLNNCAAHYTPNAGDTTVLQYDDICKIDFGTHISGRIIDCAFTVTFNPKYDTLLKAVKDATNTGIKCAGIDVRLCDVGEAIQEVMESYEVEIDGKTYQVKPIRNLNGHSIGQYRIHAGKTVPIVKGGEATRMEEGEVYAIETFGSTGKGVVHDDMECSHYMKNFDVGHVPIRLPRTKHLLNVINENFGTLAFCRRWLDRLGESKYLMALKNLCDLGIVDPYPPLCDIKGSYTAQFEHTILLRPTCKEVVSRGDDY

[5] = target: T3, Calcium/calmodulin-dependent protein kinase kinase 2; experiment: Affinity Phenotypic Cellular interaction (Western Blot (downstream phosphorylation of AMPK in C4-2 cells)) EUB0000167b CAMKK2; type: cell-based; parameters: mode of action Inhibitor, recommended concentration 1 uM
[6] = target: Mitogen-activated protein kinase 14 (Homo sapiens, UniProt Q16539); experiment: Affinity Phenotypic Cellular interaction (TNF-a release (stimmulated by LPS in human WB)) EUB0000711a MAPK14; type: functional; parameters: mode of action Negative control for SR318, recommended concentration 1 uM
Mitogen-activated protein kinase 14, sequence (Q16539 whole entry): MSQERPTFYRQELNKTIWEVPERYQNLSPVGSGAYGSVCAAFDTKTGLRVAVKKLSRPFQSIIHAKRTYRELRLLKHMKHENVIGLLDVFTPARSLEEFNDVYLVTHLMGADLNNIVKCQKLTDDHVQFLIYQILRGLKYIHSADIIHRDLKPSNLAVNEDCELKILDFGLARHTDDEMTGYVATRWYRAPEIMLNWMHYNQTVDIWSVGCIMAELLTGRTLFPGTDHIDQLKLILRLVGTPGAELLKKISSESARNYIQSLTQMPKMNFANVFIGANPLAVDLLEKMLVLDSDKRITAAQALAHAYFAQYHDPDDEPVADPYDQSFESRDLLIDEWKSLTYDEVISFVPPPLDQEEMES

[7] = target: T1, Mitogen-activated protein kinase 11; experiment: Affinity Phenotypic Cellular interaction (TNF-a release (stimmulated by LPS in human WB)) EUB0000711a MAPK11; type: functional; parameters: mode of action Negative control for SR318, recommended concentration 1 uM
Activin receptor type-1B = Activin receptor type-1B (Homo sapiens, UniProt P36896); experiment: Affinity Phenotypic Cellular interaction (Western blot (inhibition of SMAD2/3 phosphorylation)) EUB0000710a ACVR1B
Activin receptor type-1B, sequence (P36896 whole entry): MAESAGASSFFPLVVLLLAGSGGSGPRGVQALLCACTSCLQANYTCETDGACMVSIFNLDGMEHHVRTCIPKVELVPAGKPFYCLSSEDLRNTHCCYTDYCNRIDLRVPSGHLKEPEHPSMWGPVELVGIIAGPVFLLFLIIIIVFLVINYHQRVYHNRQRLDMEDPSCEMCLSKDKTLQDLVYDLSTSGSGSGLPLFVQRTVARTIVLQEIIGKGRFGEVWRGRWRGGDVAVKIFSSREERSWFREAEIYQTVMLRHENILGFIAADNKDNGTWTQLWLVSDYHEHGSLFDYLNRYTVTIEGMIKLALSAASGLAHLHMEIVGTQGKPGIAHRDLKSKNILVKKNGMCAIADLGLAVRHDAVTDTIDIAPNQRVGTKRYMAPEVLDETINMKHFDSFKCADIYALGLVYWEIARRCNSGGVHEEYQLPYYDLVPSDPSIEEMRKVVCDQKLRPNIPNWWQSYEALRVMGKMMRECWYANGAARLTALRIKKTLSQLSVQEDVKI

TGF-beta receptor type-1 = TGF-beta receptor type-1 (Homo sapiens, UniProt P36897); experiment: Affinity Phenotypic Cellular interaction (Western blot (inhibition of SMAD2/3 phosphorylation)) EUB0000710a TGFBR1
TGF-beta receptor type-1, sequence (P36897 whole entry): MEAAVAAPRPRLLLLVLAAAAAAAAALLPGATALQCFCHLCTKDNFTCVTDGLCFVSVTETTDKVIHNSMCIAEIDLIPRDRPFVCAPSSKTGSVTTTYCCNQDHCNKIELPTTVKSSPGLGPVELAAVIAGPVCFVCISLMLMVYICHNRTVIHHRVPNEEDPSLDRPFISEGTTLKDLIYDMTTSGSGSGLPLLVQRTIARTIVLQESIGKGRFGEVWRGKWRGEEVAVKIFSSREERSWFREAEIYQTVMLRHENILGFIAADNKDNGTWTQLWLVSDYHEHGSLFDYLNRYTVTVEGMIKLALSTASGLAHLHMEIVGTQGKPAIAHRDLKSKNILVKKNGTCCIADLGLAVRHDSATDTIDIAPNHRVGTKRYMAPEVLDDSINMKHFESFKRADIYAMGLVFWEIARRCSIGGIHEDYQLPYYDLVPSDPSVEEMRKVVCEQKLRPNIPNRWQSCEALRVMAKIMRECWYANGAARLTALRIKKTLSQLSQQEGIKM

Presenilin-1 [8] = target: T2, Presenilin-1; experiment: Affinity Phenotypic Cellular interaction (Abeta40 inhibition assay (in SH-SY5Y (SP4CT) cells; APP as target)) EUB0000741a PSEN1; type: cell-based; parameters: mode of action Negative control for MRK-560, recommended concentration 100 nM
[9] = target: B-cell lymphoma 6 protein (Homo sapiens, UniProt P41182); experiment: Affinity Phenotypic Cellular interaction (Inhibition of BCL6 co-repressor (BCoR, M2H assay/Bright-Glo luciferase assay in HEK293T cells, Promega)) EUB0000316c BCL6; type: cell-based; parameters: mode of action Inhibitor, recommended concentration 1 uM
[10] = target: 5'-AMP-activated protein kinase catalytic subunit alpha-1 (Homo sapiens, UniProt Q13131); experiment: Affinity Phenotypic Cellular interaction (Cellular mechanistic pACC assay using IMR-32 neuroblastoma cells) EUB0000707a PRKAA1; type: functional; parameters: mode of action Negative control for BAY-3827, recommended concentration 100 nM
5'-AMP-activated protein kinase catalytic subunit alpha-1, sequence (Q13131 whole entry): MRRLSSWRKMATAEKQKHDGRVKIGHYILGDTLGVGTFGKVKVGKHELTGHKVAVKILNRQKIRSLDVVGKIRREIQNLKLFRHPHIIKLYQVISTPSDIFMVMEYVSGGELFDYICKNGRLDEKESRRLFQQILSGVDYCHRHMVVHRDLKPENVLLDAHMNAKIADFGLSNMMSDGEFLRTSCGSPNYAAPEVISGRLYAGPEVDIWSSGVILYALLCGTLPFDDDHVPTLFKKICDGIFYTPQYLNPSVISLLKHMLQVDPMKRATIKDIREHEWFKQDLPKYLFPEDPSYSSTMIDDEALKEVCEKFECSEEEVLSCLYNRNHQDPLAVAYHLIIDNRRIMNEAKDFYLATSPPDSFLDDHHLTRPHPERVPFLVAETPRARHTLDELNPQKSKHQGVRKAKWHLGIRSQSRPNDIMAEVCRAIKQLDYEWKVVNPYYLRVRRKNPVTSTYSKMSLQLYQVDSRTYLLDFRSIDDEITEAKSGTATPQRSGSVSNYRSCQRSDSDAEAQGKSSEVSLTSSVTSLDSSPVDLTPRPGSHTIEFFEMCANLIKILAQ

[11] = target: Ribosomal protein S6 kinase alpha-1 (Homo sapiens) (UniProt Q15418); experiment: Affinity Phenotypic Cellular interaction (Cellular mechanistic pACC assay using IMR-32 neuroblastoma cells) EUB0000707a RPS6KA1
Ribosomal protein S6 kinase alpha-1 (Homo sapiens), sequence (Q15418 whole entry, looked up): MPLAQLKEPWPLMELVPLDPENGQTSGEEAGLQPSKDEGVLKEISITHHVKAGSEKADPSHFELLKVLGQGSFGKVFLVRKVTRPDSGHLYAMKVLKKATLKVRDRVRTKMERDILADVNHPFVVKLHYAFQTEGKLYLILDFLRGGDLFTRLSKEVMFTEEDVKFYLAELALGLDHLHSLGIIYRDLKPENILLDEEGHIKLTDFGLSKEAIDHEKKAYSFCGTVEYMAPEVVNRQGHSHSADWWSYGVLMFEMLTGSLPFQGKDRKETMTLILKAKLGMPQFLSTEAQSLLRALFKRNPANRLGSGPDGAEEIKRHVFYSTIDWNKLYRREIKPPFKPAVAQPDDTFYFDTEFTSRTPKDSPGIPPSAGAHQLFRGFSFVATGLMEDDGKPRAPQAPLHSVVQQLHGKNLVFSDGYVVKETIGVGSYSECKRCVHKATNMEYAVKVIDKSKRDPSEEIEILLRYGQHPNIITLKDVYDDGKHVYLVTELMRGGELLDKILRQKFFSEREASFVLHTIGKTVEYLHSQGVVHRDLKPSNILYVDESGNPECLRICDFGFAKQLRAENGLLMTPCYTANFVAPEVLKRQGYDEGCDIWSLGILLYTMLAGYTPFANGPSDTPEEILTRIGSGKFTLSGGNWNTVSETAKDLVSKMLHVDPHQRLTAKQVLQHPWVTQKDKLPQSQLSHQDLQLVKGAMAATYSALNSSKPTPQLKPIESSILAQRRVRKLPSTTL

[12] = target: T1, Mitogen-activated protein kinase 11; experiment: Affinity Phenotypic Cellular interaction (TNF-a release (stimmulated by LPS in human WB)) EUB0000718a MAPK11; type: functional; parameters: mode of action Inhibitor, recommended concentration 1 uM
[13] = Affinity Phenotypic Cellular interaction (Proliferation assay (CellTiter-Glo ATP assay in human lung H1299 cells)) EUB0000752a NDUFS2
Presenilin-1 [14] = target: T2, Presenilin-1; experiment: Affinity Phenotypic Cellular interaction (Abeta42 inhibition assay (electrochemiluminescent detection of peptides secreted by SH-SY5Y cells stably overexpressing the APP C-terminal fragment SPA4CT)) EUB0000739a PSEN1; parameters: mode of action Negative control for GSM1, recommended concentration 1 uM

T1 sequence (Q15759 whole entry): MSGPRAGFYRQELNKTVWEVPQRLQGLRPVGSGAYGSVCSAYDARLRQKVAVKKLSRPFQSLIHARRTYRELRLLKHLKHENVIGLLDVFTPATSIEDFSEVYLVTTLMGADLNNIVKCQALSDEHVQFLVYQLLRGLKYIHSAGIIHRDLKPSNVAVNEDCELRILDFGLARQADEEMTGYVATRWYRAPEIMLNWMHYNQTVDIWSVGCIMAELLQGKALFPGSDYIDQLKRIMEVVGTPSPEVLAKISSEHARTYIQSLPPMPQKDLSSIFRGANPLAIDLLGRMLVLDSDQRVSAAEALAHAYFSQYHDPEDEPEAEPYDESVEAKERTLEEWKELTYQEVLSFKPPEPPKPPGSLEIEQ

Q: Which IC50 [1] does the source give for `O=C1c2ccc(Nc3ccc(F)cc3F)cc2CCc2ccc(OC[C@H](O)CO)cc21` [Skepinone-L] here?
A: The IC50 was 25 nM.

Q: For `O=S(=O)(NC1CCC(c2cc(F)ccc2F)(S(=O)(=O)c2ccc(Cl)cc2)CC1)C(F)(F)F` (stereo unspecified) [MRK-560], which IC50 (Presenilin-1 [2]) is on record?
A: The IC50 was < 0.5 nM.

Q: With `O=C(O)c1ccc(-c2coc3ncc(-c4ccccc4)cc23)cc1Cl` as the molecule, how does the IC50 [3] read?
A: The IC50 was > 10000 nM.

Q: For `Cc1nc(N2CC[C@H](O)C2)ncc1-c1cc(C(F)(F)F)cc2[nH]ncc12`, which EC50 [4] is on record?
A: The EC50 was 15 nM.

Q: For `Cc1cccc(-c2cnc3occ(-c4ccc(C(=O)O)c(C5CCCC5)c4)c3c2)c1`, which IC50 [5] is on record?
A: The IC50 was 1600 nM.

Q: With `O=C(NCCCC1CCCCC1)c1ccc(CNC(=O)c2cnn(-c3ccccc3)c2C(F)(F)F)cc1` [SR-321] as the molecule, how does the IC50 [6] read?
A: The IC50 was > 10000 nM.

Q: What about the IC50 [7] of the same molecule?
A: Its IC50 is > 10000 nM.

Q: For `Cc1cnc(-c2cc(Cl)ccc2F)cc1-n1c(=O)n(CC(N)=O)c2ccccc21` [Al11], which EC50 (Activin receptor type-1B) is on record?
A: Its EC50 is > 10000 nM.

Q: And the EC50 (TGF-beta receptor type-1)?
A: The EC50 was > 10000 nM.

Q: For `CC(C)(C)OC(=O)N1CCCC1CNC1CCC(c2cc(F)ccc2F)(S(=O)(=O)c2ccc(Cl)cc2)CC1` (stereo unspecified) [GSI-NC], which IC50 (Presenilin-1 [8]) is on record?
A: Its IC50 is 1600 nM.

Q: For `O=C1CCc2cc(Nc3cc(OC4CCOCC4)c([N+](=O)[O-])cc3Cl)ccc2N1`, which IC50 [9] is on record?
A: The IC50 was 720 nM.

Q: Which IC50 [10] does the source give for `CC1=C(C#N)C(c2ccc3c(c2)c(NC(=O)c2ccccc2C)nn3C)C(C#N)=C(C)N1` [BAY-974] here?
A: Its IC50 is > 30000 nM.

Q: And the IC50 [11]?
A: The IC50 was > 30000 nM.

Q: For `O=C(NCCN1CCOCC1)c1ccc2c(c1)C(=O)c1ccc(Nc3ccc(F)c(NC(=O)c4ccccc4)c3)cc1CC2` [FS-694], which IC50 [12] is on record?
A: Its IC50 is 38 nM.

Q: For `c1ccc2oc(-c3csc(C4CCN(Cc5nc6ncccc6[nH]5)CC4)n3)cc2c1`, which IC50 [13] is on record?
A: Its IC50 is 33 nM.

Q: Which IC50 (Presenilin-1 [14]) does the source give for `COc1cc(-c2cn([C@H]3CCc4ccccc4N(CC(F)(F)F)C3=O)nn2)ccc1-n1ccc(C)n1` here?
A: Its IC50 is > 10000 nM.
